{
  "source": "patent US11377436B2",
  "about": "“EAAT2 enhancing molecules” (THE BRIGHAM AND WOMEN'S HOSPITAL, INC., priority 2017, dated 2022)",
  "key": {"human EAAT2": {"system": "human EAAT2", "assay": "In vitro assay in primary astrocyte cultures (PA-EAAT2 cells), EAAT2 protein levels by Western blot", "assay_type": "cell-based", "conditions": "for In vitro - fold increase for EAAT2 in cultured astrocytes at indicated concentration (maximum activity): PA-EAAT2 cells treated 24 hr at 0.25-25 μM, relative to DMSO controls, value at the concentration that reaches maximum activity; for indicated concentration that reaches maximum activity (EAAT2 increase in cultured astrocytes): PA-EAAT2 cells, 24 hr, tested at 0.25, 0.5, 1, 2.5, 5, 10 and 25 μM", "experimental": "In vitro assay in primary astrocyte cultures. Example compounds were initially evaluated in PA-EAAT2 cells, a primary astrocyte stably expressing human EAAT2 mRNAs (Kong et al., J Clin Invest. 124:1255-67). Cells were treated with the example compounds at 0.25 μM, 0.5 μM, 1 μM, 2.5 μM, 5 μM, 10 μM, and 25 μM for 24 hr and then harvested for measuring EAAT2 protein levels by Western blot analysis."}, "EAAT2": {"system": "EAAT2", "assay": "In vivo assay in wild-type mice, EAAT2 protein levels in forebrain gliosomes by Western blot", "conditions": "C57BL/6J mice, 40 mg/kg oral gavage, relative to vehicle controls", "experimental": "In vivo assay in wild-type mice. Example compounds that were capable of increasing EAAT2 protein expression in cultured astrocytes were further evaluated in C57BL/6J mice. Mice were treated by oral gavage with the compound at 40 mg/kg. At 24 hr post-treatment, mice were euthanized and forebrains were harvested for the gliosome preparation (Dunkley et al., Nat Protoc 3, 1718-1728). Gliosomes are enriched with astrocytic processes, and majority of EAAT2 is localized in astrocytic processes (gliosomes). EAAT2 protein levels in gliosomes were determined by Western blot analysis."}},
  "data": [
    {"smiles": "O=C(Nc1ccc(-c2ccccn2)cn1)c1ccccc1", "note": "[Example 3, N-([2,3′-bipyridin]-6′-yl)benzamide]", "values": [
      {"measurement": "In vitro - fold increase for EAAT2 in cultured astrocytes at indicated concentration (maximum activity)", "setting": "human EAAT2", "value": 1.68, "unit": "fold"},
      {"measurement": "indicated concentration that reaches maximum activity (EAAT2 increase in cultured astrocytes)", "setting": "human EAAT2", "value": "(5 μM)"},
      {"measurement": "In vivo - fold increase for EAAT2 in mouse forebrain at 24 hr post treatment (40 mg/kg by PO)", "setting": "EAAT2", "value": 1.42, "unit": "fold"}
    ]},
    {"smiles": "O=C(Nc1ccc(-c2ccccn2)nc1)c1ccccc1", "note": "[Example 18, N-([2,2′-bipyridin]-5-yl)benzamide]", "values": [
      {"measurement": "In vitro - fold increase for EAAT2 in cultured astrocytes at indicated concentration (maximum activity)", "setting": "human EAAT2", "value": 2.45, "unit": "fold"},
      {"measurement": "indicated concentration that reaches maximum activity (EAAT2 increase in cultured astrocytes)", "setting": "human EAAT2", "value": "(1 μM)"},
      {"measurement": "In vivo - fold increase for EAAT2 in mouse forebrain at 24 hr post treatment (40 mg/kg by PO)", "setting": "EAAT2", "value": 1.56, "unit": "fold"}
    ]},
    {"smiles": "O=C(Nc1ccc(-c2ccccn2)nc1)c1ccc(F)cc1", "note": "[Example 19, N-([2,2′-bipyridin]-5-yl)-4-fluorobenzamide]", "values": [
      {"measurement": "In vitro - fold increase for EAAT2 in cultured astrocytes at indicated concentration (maximum activity)", "setting": "human EAAT2", "value": 1.97, "unit": "fold"},
      {"measurement": "indicated concentration that reaches maximum activity (EAAT2 increase in cultured astrocytes)", "setting": "human EAAT2", "value": "(1 μM)"},
      {"measurement": "In vivo - fold increase for EAAT2 in mouse forebrain at 24 hr post treatment (40 mg/kg by PO)", "setting": "EAAT2", "value": 1.41, "unit": "fold"}
    ]},
    {"smiles": "COc1ccc(C(=O)Nc2ccc(-c3ccccn3)nc2)cc1", "note": "[Example 21, N-([2,2′-bipyridin]-5-yl)-4-methoxybenzamide]", "values": [
      {"measurement": "In vitro - fold increase for EAAT2 in cultured astrocytes at indicated concentration (maximum activity)", "setting": "human EAAT2", "value": 1.73, "unit": "fold"},
      {"measurement": "indicated concentration that reaches maximum activity (EAAT2 increase in cultured astrocytes)", "setting": "human EAAT2", "value": "(0.5 μM)"},
      {"measurement": "In vivo - fold increase for EAAT2 in mouse forebrain at 24 hr post treatment (40 mg/kg by PO)", "setting": "EAAT2", "value": 1.34, "unit": "fold"}
    ]},
    {"smiles": "O=C(Nc1ccc(-c2ccccn2)nc1)c1ccc(Cl)cc1", "note": "[Example 22, N-([2,2′-bipyridin]-5-yl)-4-chlorobenzamide]", "values": [
      {"measurement": "In vitro - fold increase for EAAT2 in cultured astrocytes at indicated concentration (maximum activity)", "setting": "human EAAT2", "value": 1.64, "unit": "fold"},
      {"measurement": "indicated concentration that reaches maximum activity (EAAT2 increase in cultured astrocytes)", "setting": "human EAAT2", "value": "(0.5 μM)"},
      {"measurement": "In vivo - fold increase for EAAT2 in mouse forebrain at 24 hr post treatment (40 mg/kg by PO)", "setting": "EAAT2", "value": 1.20, "unit": "fold"}
    ]},
    {"smiles": "O=C(Nc1ccc(-c2ccccn2)nc1)c1cccc(Cl)c1", "note": "[Example 23, N-([2,2′-bipyridin]-5-yl)-3-chlorobenzamide]", "values": [
      {"measurement": "In vitro - fold increase for EAAT2 in cultured astrocytes at indicated concentration (maximum activity)", "setting": "human EAAT2", "value": 1.84, "unit": "fold"},
      {"measurement": "indicated concentration that reaches maximum activity (EAAT2 increase in cultured astrocytes)", "setting": "human EAAT2", "value": "(2.5 μM)"},
      {"measurement": "In vivo - fold increase for EAAT2 in mouse forebrain at 24 hr post treatment (40 mg/kg by PO)", "setting": "EAAT2", "value": 1.45, "unit": "fold"}
    ]},
    {"smiles": "O=C(Nc1cnc(-c2ccccn2)cn1)c1ccccc1", "note": "[Example 33, N-(5-(pyridin-2-yl)pyrazin-2-yl)benzamide]", "values": [
      {"measurement": "In vitro - fold increase for EAAT2 in cultured astrocytes at indicated concentration (maximum activity)", "setting": "human EAAT2", "value": "no increase"},
      {"measurement": "In vivo - fold increase for EAAT2 in mouse forebrain at 24 hr post treatment (40 mg/kg by PO)", "setting": "EAAT2", "value": "no increase"}
    ]},
    {"smiles": "O=C(Nc1ncc(-c2ccccn2)cn1)c1ccccc1", "note": "[Example 48, N-(5-(pyridin-2-yl)pyrimidin-2-yl)benzamide]", "values": [
      {"measurement": "In vitro - fold increase for EAAT2 in cultured astrocytes at indicated concentration (maximum activity)", "setting": "human EAAT2", "value": 1.58, "unit": "fold"},
      {"measurement": "indicated concentration that reaches maximum activity (EAAT2 increase in cultured astrocytes)", "setting": "human EAAT2", "value": "(2.5 μM)"},
      {"measurement": "In vivo - fold increase for EAAT2 in mouse forebrain at 24 hr post treatment (40 mg/kg by PO)", "setting": "EAAT2", "value": 1.45, "unit": "fold"}
    ]},
    {"smiles": "O=C(Nc1cnc(-c2ccccn2)nc1)c1ccccc1", "note": "[Example 63, N-(2-(pyridin-2-yl)pyrimidin-5-yl)benzamide]", "values": [
      {"measurement": "In vitro - fold increase for EAAT2 in cultured astrocytes at indicated concentration (maximum activity)", "setting": "human EAAT2", "value": 1.32, "unit": "fold"},
      {"measurement": "indicated concentration that reaches maximum activity (EAAT2 increase in cultured astrocytes)", "setting": "human EAAT2", "value": "(5 μM)"},
      {"measurement": "In vivo - fold increase for EAAT2 in mouse forebrain at 24 hr post treatment (40 mg/kg by PO)", "setting": "EAAT2", "value": "no increase"}
    ]},
    {"smiles": "CN(C)CCOc1ccc(-c2ccccn2)cn1", "note": "[Example 94, 2-([2,3′-bipyridin]-6′-yloxy)-N,N-dimethylethan-1-amine]", "values": [
      {"measurement": "In vitro - fold increase for EAAT2 in cultured astrocytes at indicated concentration (maximum activity)", "setting": "human EAAT2", "value": 1.51, "unit": "fold"},
      {"measurement": "indicated concentration that reaches maximum activity (EAAT2 increase in cultured astrocytes)", "setting": "human EAAT2", "value": "(5 μM)"},
      {"measurement": "In vivo - fold increase for EAAT2 in mouse forebrain at 24 hr post treatment (40 mg/kg by PO)", "setting": "EAAT2", "value": 1.49, "unit": "fold"}
    ]},
    {"smiles": "CN(C)CCOc1cnc(-c2ccccn2)cn1", "note": "[Example 136, N,N-dimethyl-2-((5-(pyridin-2-yl)pyrazin-2-yl)oxy)ethan-1-amine]", "values": [
      {"measurement": "In vitro - fold increase for EAAT2 in cultured astrocytes at indicated concentration (maximum activity)", "setting": "human EAAT2", "value": "no increase"},
      {"measurement": "In vivo - fold increase for EAAT2 in mouse forebrain at 24 hr post treatment (40 mg/kg by PO)", "setting": "EAAT2", "value": "no increase"}
    ]},
    {"smiles": "CN(C)CCOc1ncc(-c2ccccn2)cn1", "note": "[Example 157, N,N-dimethyl-2-((5-(pyridin-2-yl)pyrimidin-2-yl)oxy)ethan-1-amine]", "values": [
      {"measurement": "In vitro - fold increase for EAAT2 in cultured astrocytes at indicated concentration (maximum activity)", "setting": "human EAAT2", "value": 1.54, "unit": "fold"},
      {"measurement": "indicated concentration that reaches maximum activity (EAAT2 increase in cultured astrocytes)", "setting": "human EAAT2", "value": "(1 μM)"},
      {"measurement": "In vivo - fold increase for EAAT2 in mouse forebrain at 24 hr post treatment (40 mg/kg by PO)", "setting": "EAAT2", "value": 1.37, "unit": "fold"}
    ]}
  ]
}
